The values that follow come from PMC5410048, “A retro-inverso cell-penetrating peptide for siRNA delivery” (Journal of Nanobiotechnology, 2017).

Non-standard residues stand in square brackets, D forms with d. Residues, ends and D or L forms follow the SMILES beside them.

Test in series [1]: not given
This is another data set of the same source.

Test in series [2]: not given
This is another data set of the same source.

Test in series [3]: not given
The source holds these as a separate data set.

In turn, `CC(C)C[C@@H](NC(=O)CN)C(=O)N[C@H](Cc1c[nH]c2ccccc12)C(=O)N[C@H](CCCNC(=N)N)C(=O)N[C@H](C)C(=O)N[C@H](CC(C)C)C(=O)N[C@H](Cc1c[nH]c2ccccc12)C(=O)N[C@H](CCCNC(=N)N)C(=O)N[C@H](CC(C)C)C(=O)N[C@H](CC(C)C)C(=O)N[C@H](CCCNC(=N)N)C(=O)N[C@H](CO)C(=O)N[C@H](CC(C)C)C(=O)N[C@H](Cc1c[nH]c2ccccc12)C(=O)N[C@H](CCCNC(=N)N)C(=O)N[C@H](CC(C)C)C(=O)N[C@H](CC(C)C)C(=O)N[C@H](Cc1c[nH]c2ccccc12)C(=O)N[C@H](CCCCN)C(=O)O` (H-G[dL][dW][dR][dA][dL][dW][dR][dL][dL][dR][dS][dL][dW][dR][dL][dL][dW][dK]-OH) returned a Mean size (nm) at 0 h, Nb (%) of 30 nm.
In series [1], `CC(C)C[C@@H](NC(=O)[C@@H](Cc1c[nH]c2ccccc12)NC(=O)[C@@H](CCCNC(=N)N)NC(=O)[C@@H](C)NC(=O)[C@@H](CC(C)C)NC(=O)[C@@H](Cc1c[nH]c2ccccc12)NC(=O)[C@@H](CCCNC(=N)N)NC(=O)[C@@H](CC(C)C)NC(=O)[C@@H](CC(C)C)NC(=O)[C@@H](CCCNC(=N)N)NC(=O)[C@@H](CO)NC(=O)[C@@H](CC(C)C)NC(=O)[C@@H](Cc1c[nH]c2ccccc12)NC(=O)[C@@H](CCCNC(=N)N)NC(=O)[C@@H](CC(C)C)NC(=O)[C@@H](CC(C)C)NC(=O)[C@@H](Cc1c[nH]c2ccccc12)NC(=O)[C@H](N)CCCCN)C(=O)NCC(=O)O` (H-[dK][dW][dL][dL][dR][dW][dL][dS][dR][dL][dL][dR][dW][dL][dA][dR][dW][dL]G-OH) displayed a Tryptophan fluorescence emission maximum with siRNA of 340 nm. Moreover, the Blue shift of tryptophan fluorescence with excess liposomes in series [2] was 10 nm. The same molecule had a Tryptophan fluorescence emission maximum, free peptide in series [3] of 345 nm.
Turning to H-GLWRALWRLLRSLWRLLWK-OH, in series [1], the Tryptophan fluorescence emission maximum with siRNA is 340 nm. This molecule also had a Tryptophan fluorescence emission maximum, free peptide in series [3] of 348 nm.
